Data published in ChEMBL document CHEMBL3621204, “Dual biological functions of the apoptotic activity and anti-inflammatory effect by alcyonolide congeners from the Okinawan soft coral, Cespitularia sp” (Bioorg Med Chem Lett, 2015).
Active and inactive are the calls of the source. The calls are words filed in the database; no cut-off is given here.

Columns and labels:
RAW264.7 [1] = assay: Antiinflammatory activity in mouse RAW264.7 cells assessed as inhibition in LPS-stimulated nitric oxide production; assay type: functional, cell-based
HCT-116 [2] = assay: Cytotoxicity against human HCT116 cells; assay type: functional, cell-based
HCT-116 [3] = assay: Induction of apoptosis in human HCT116 cells assessed as activation of caspase 3/7 at 2.5 to 20 uM after 2 hrs 30 mins by luciferase reporter assay; assay type: functional, cell-based
HCT-116 [4] = assay: Induction of apoptosis in human HCT116 cells assessed as nuclear condensation at 100 uM by fluorescence assay; assay type: functional, cell-based
RAW264.7 [5] = assay: Cytotoxicity against LPS/IFN-gamma stimulated mouse RAW264.7 cells assessed as cell survival at 2 to 8 uM by MTT assay; assay type: cell-based; conditions: raw264.7, 8 µM
RAW264.7 [6] = assay: Anti-inflammatory activity in mouse RAW264.7 cells assessed as inhibition of LPS/IFN-gamma-stimulated iNOS mRNA expression by RT-PCR analysis; assay type: functional, cell-based
RAW264.7 [7] = assay: Anti-inflammatory activity in mouse RAW264.7 cells assessed as inhibition of LPS/IFN-gamma-stimulated iNOS mRNA expression at 2 uM by RT-PCR analysis (reference value: 28.91 ng/uL); assay type: functional
RAW264.7 [8] = assay: Anti-inflammatory activity in mouse RAW264.7 cells assessed as inhibition of LPS/IFN-gamma-stimulated iNOS mRNA expression at 4 uM by RT-PCR analysis (reference value: 28.91 ng/uL); assay type: functional
RAW264.7 [9] = assay: Anti-inflammatory activity in mouse RAW264.7 cells assessed as inhibition of LPS/IFN-gamma-stimulated iNOS mRNA expression at 8 uM by RT-PCR analysis (reference value: 28.91 ng/uL); assay type: functional
RAW264.7 [10] = assay: Anti-inflammatory activity in mouse RAW264.7 cells assessed as inhibition of LPS/IFN-gamma-stimulated COX2 mRNA expression by RT-PCR analysis; assay type: functional, cell-based
RAW264.7 [11] = assay: Anti-inflammatory activity in mouse RAW264.7 cells assessed as inhibition of LPS/IFN-gamma-stimulated COX2 mRNA expression at 2 uM by RT-PCR analysis (reference value: 54.51 ng/uL); assay type: functional
RAW264.7 [12] = assay: Anti-inflammatory activity in mouse RAW264.7 cells assessed as inhibition of LPS/IFN-gamma-stimulated COX2 mRNA expression at 4 uM by RT-PCR analysis (reference value: 54.51 ng/uL); assay type: functional
RAW264.7 [13] = assay: Anti-inflammatory activity in mouse RAW264.7 cells assessed as inhibition of LPS/IFN-gamma-stimulated COX2 mRNA expression at 8 uM by RT-PCR analysis (reference value: 54.51 ng/uL); assay type: functional

SMILES	inhibition (RAW264.7 [1])	IC50 (HCT-116 [2]) [µM]	Activity (HCT-116 [3])	Activity (HCT-116 [4])	Activity (RAW264.7 [5])	inhibition (RAW264.7 [6])	Activity (RAW264.7 [7]) [ng/µL]	Activity (RAW264.7 [8]) [ng/µL]	Activity (RAW264.7 [9]) [ng/µL]	inhibition (RAW264.7 [10])	Activity (RAW264.7 [11]) [ng/µL]	Activity (RAW264.7 [12]) [ng/µL]	Activity (RAW264.7 [13]) [ng/µL]
O=C1c2c(O)cc(O)cc2O[C@H](c2ccc(O)cc2)[C@H]1O	Dose-dependent effect	–	–	–	–	–	–	–	–	–	–	–	–
C=CC(=C)[C@@H]1[C@@H](OC(C)=O)OC=C2[C@H](CC=C(C)C)OC(=O)C[C@H]21	Dose-dependent effect	6.04	Active	Active	Non-toxic	Dose-dependent effect	20.66	12.44	6.58	Dose-dependent effect	37.1	31.77	15.93
C=C(CCCC(C)=O)[C@@H]1[C@@H](OC(C)=O)OC=C2[C@H](CC=C(C)C)OC(=O)C[C@H]21	Dose-dependent effect	5.85	Active	Active	Non-toxic	Dose-dependent effect	24.62	10.94	8.25	Dose-dependent effect	37.36	21.48	13.75
